Experimental data: US20030211577A1, “Novel G protein-coupled receptor, GAVE7” (priority 2001, published 2003)

Tested on: GAVE7 expression in THP-1 cells
Experiment: Immune cell regulation: GAVE7 expression in PMA-differentiated THP-1 cells by Northern blot or TaqMan assay
Type: cell-based
Conditions: PMA differentiated THP-1 cells stimulated with LPS (10 μg/ml) for 4 hours and 24 hours, actin control
Description: THP-1 cells were obtainied from the American Type Culture Collection (Manassas, Va.) and maintained in RPMI culture medium (RPMI 1640, 100 IU/ml penicillin-streptomycin, 10% heat-inactivated fetal bovine serum) at 37° C. in a humidfied 95% air/5% CO2 tissue culture incubator. THP-1 cells were treated with 10 nM phorbol-12-myristate-13-acetate (PMA) and incubated overnight to differentiate the monocyte into an adhereent macrophage-type cell. The differentiated cells adhere, stop proliferating and express high levels of CD14. LPS activates macrophages and elicits an inflammatory response. The cells were washed once with the culture medium and grown for an additional 48 hours in the absence of PMA. The PMA differentiated cells were stimulted with or without LPS (10 μg/ml) for 4 hours and 24 hours.
The cells then were assayed for GAVE7 expression by Northern blot or TaqMan assay. Cell exposed to actin served as a control.

For Lipopolysaccharide [LPS], the GAVE7 expression was “down-regulated”.
